# Columns and labels:
# [1] = system: thrombus growth in abdominal vena cava; test: rabbit deep vein thrombosis model, inhibition of thrombus growth; assay type: in vivo; conditions: for of Thrombosis (inhibition of thrombus growth): rabbit
# Excerpt: (§1) Rabbits were anesthetized with I.M. injections of Ketamine, Xylazine, and Acepromazine cocktail. A standardized protocol consisted of insertion of a thrombogenic cotton thread and copper wire apparatus into the abdominal vena cava of the anesthetized rabbit. A non-occlusive thrombus was allowed to develop in the central venous circulation and inhibition of thrombus growth was used as a measure of the antithrombotic activity of the studied compounds. Test agents or control saline were administered through a marginal ear vein catheter. A femoral vein catheter was used for blood sampling prior to and during steady state infusion of test compound. Initiation of thrombus formation begins immediately after advancement of the cotton thread apparatus into the central venous circulation. Test compounds were administered from time=30 min to time=150 min at which the experiment was terminated. The rabbits were euthanized and the thromidus excised by surgical dissection and characterized by weight and histology. Blood samples were analyzed for changes in hematological and coagulation parameters.
# [2] = coagulation parameters (aPTT, PT) in rabbit venous thrombosis model; assay type: in vivo; conditions: for fold increase over baseline PT / fold increase over baseline aPTT: rabbit, steady state, mean ± SD
# Excerpt: as §1
# [3] = rabbit, in vivo
# Excerpt: as §1
# [4] = highest dose (100 μg/kg+2.57 μg/kg/min)
structure (smiles),measurement,setting,value
"NC(N)=NCCCC(N)C(=O)NCC(=O)NC(CCCN=C(N)N)C(=O)c1nccs1 [H-D-Arg-Gly-Arg-thiazole, (D)-Arg-Gly-Arg-thiazole]",antithrombotic efficacy in the rabbit venous thrombosis model (in words),[1]; at the higher doses evaluated,demonstrated antithrombotic efficacy at the higher doses evaluated
same,of Thrombosis (inhibition of thrombus growth),[1]; i.v. 50 μg/kg + 1.28 μg/kg/min,-7.84
same,of Thrombosis (inhibition of thrombus growth),[1]; i.v. 75 μg/kg + 1.93 μg/kg/min,42.955
same,of Thrombosis (inhibition of thrombus growth),[1]; i.v. 100 μg/kg + 2.57 μg/kg/min,117.72
same,effect on PT prolongation (in words),[2]; [4],no significant effect
same,effect on aPTT prolongation (in words),[2]; [4],no significant effect
same,fold increase over baseline PT,[2]; 50 μg/kg + 1.28 μg/kg/min,1.00 ± 0.00 fold
same,fold increase over baseline aPTT,[2]; 50 μg/kg + 1.28 μg/kg/min,1.00 ± 0.03 fold
same,fold increase over baseline PT,[2]; 75 μg/kg + 1.93 μg/kg/min,1.00 ± 0.00 fold
same,fold increase over baseline aPTT,[2]; 75 μg/kg + 1.93 μg/kg/min,1.02 ± 0.03 fold
same,fold increase over baseline PT,[2]; 100 μg/kg + 2.57 μg/kg/min,0.83 ± 0.00 fold
same,fold increase over baseline aPTT,[2]; 100 μg/kg + 2.57 μg/kg/min,1.08 ± 0.02 fold
same,effects on hematological parameters as compared to saline controls (in words),[3],no significant effects

# Reference: patent publication US6069130A, “Ketoheterocyclic inhibitors of factor Xa” (COR Therapeutics, Inc., priority 1995, dated 2000)
